Broadly, the pIC50 is the negative decadic logarithm of the IC50, by convention in mol/L.

In US20240116910A1, “Heterocycles as WIP1 Inhibitors” (PMV Pharmaceuticals, Inc., priority 2022, published 2024) one finds IC50 data, which are given here for 21 molecules.

This experiment deals with recombinant His-tag Wip1(2-420) protein (amino acids #2-420) (Homo sapiens (Human), UniProt O15297). As to the kind of experiment: Wip1(2-420) phosphatase enzyme FDP assay. The settings on record: fluorescein diphosphate (FDP) substrate, RT 2 hours, fluorescence Ex485/Em535; read-out: WIP1 (Truncated 2-420) FDP Assay: IC50. It is filed as biochemical. Here is the method:
The Human Wip1 (2-420, aa 2-420) or Wip1 full length (aa 1-605) DNA sequence was codon optimized and synthesized by Genscript for insect cell expression. The open reading frame of Wip1(2-420) with a N-terminal-His6 affinity tag followed by a TEV cleavage site was subcloned sites into the pFastBac1 expression vector. The recombinant bacmid DNA was transfected in Sf9 insect cells for baculovirus production. After 72 hours infection, the Sf9 cells were harvested by centrifugation and resuspended in lysis buffer containing 50 mM Tris/HCl, pH 8.0, 500 mM NaCl, 20% glycerol, Benzonase 0.5% CHAPS and Roche cOmplete™ EDTA free protease inhibitors. Cells were disrupted with microfluidizer and the debris was removed by centrifugation at 185,000 g for 1 hour. The supernatant was subjected to HisTrap FF for affinity purification. Proteins were eluted with a linear gradient of 0-500 mM imidazole in HisTrap buffer containing 50 mM Tris/HCl, pH 8.0, 500 mM NaCl and 20% glycerol, 0.05% CHAPS. The eluted protein was dialyzed against dialysis buffer (20 mM MES, 100 mM NaCl, 20% glycerol, 0.5 mM TCEP, 0.05% CHAPS) followed purification via HiTrap SP HP column. The protein was eluted with a gradient of 100 mM-2 M NaCl in dialysis buffer. His6-[…] was finally concentrated and loaded onto a size-exclusion column (NiLoad 16/600 Superdex 200 pg, GE Healthcare) pre-equilibrated with 50 mM MOPS (pH 7.5), 200 mM NaCl, 20% glycerol, 1 mM TCEP, 0.05% CHAPS and 0.1 mM EGTA. The peak fractions containing purified Nis6-Wip1(2-420) were pooled and concentrated to 1.0 mg/mL and flash frozen at −80° C.
Wip1 Length and Wip1(2-420) Phosphatase Enzyme FDP Assays.
Test compounds (252 mM stock in DMSO) were diluted 3 folds in series in DMSO and 1.2 μl per well were added into 384-well polypropylene black plates (Nunc). Twelve μl per well of Assay Buffer (100 mM NaCl, 50 mM MOPS, pH 7.5, 0.8 mM CHAPS, 0.1 mM EGTA, 30 mM MgCl2, 0.3 mM TCEP, 0.2 mg/mL BSA) was added followed by […] per well of 50.4 nM recombinant His-tag Wip1 full length protein (amino acids #1-605) or recombinant His-tag Wip1(2-420) protein (amino acids #2-420) in Assay Buffer and the plate was incubated at RT (22° C.) for 5 min. Ten mM of fluorescein diphosphate (FDP) in DMSO was diluted to […] in Assay Buffer and […] per well was added to the plate and incubated at RT (22° C.) for 2 hours. […] per well of 64.1 mM EDTA in water were added to stop the enzyme reaction. The plate was centrifuged at 1,200 rpm (Eppendorf 5810R Plate centrifuge) for 1 minute and fluorescence intensity (Ex485/Em535) was measured on Perkin Elmer Victor Reader. EC50 values were calculated using either Prism (GraphPad) or ActivityBase software (IDBS), The IC50 results are provided in Table M.

pIC50: −log10 of the molar value.

Chain of recombinant His-tag Wip1(2-420) protein (amino acids #2-420) (O15297 2-420): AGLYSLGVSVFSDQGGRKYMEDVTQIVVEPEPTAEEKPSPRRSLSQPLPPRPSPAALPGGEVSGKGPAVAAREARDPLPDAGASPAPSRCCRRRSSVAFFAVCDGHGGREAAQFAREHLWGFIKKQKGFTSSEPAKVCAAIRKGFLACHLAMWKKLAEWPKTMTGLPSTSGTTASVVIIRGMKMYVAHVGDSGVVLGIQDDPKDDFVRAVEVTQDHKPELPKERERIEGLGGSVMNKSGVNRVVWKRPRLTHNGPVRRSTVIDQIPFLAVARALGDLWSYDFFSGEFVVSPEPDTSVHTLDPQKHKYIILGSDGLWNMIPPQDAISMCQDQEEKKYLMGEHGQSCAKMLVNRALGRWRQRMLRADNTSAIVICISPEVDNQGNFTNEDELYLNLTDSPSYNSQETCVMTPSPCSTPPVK

For the molecule `Cc1ncc(Cl)cc1N[C@@H](C)c1ccc(C(=O)N[C@@H](CC2CCC3CC32)C(=O)NC2CC2)s1` (stereo in doubt) [Compound 273, (2S)-3-[(2S)-bicyclo[3.1.0]hexan-2-yl]-2-({5-[(1S)-1-[(5-chloro-2-methylpyridin-3-yl)amino]ethyl]thiophen-2-yl}formamido)-N-cyclopropylpropanamide], the pIC50 is 8.15.
Take `Cc1ncc(Cl)cc1N[C@H](C)c1ccc(C(=O)N[C@@H](CC2CCCC2)C(=O)NC2CC2)s1` [Compound 9, 5-[(1R)-1-[(5-chloro-2-methyl-3-pyridyl)amino]ethyl]-N-[(1S)-1-(cyclopentylmethyl)-2-(cyclopropylamino)-2-oxo-ethyl]thiophene-2-carboxamide]: the negative logarithm of the IC50 (pIC50) was 6.39.
The value for `Cc1ncc(Cl)cc1N[C@H](C)c1ccc(C(=O)N[C@@H](CC2CCCC2)C(=O)N[C@@H]2CC2(F)F)s1` [Compound 22, (2S)-2-({5-[(1R)-1-[(5-chloro-2-methylpyridin-3-yl)amino]ethyl]thiophen-2-yl}formamido)-3-cyclopentyl-N-[(1R)-2,2-difluorocyclopropyl]propanamide] was 6.50; that for `COc1ncc(Cl)cc1N[C@H](C)c1ccc(C(=O)N[C@@H](CC2CCCC2)C(=O)NC2CC2)s1` [Compound 35, (2S)-2-({5-[(1R)-1-[(5-chloro-2-methoxypyridin-3-yl)amino]ethyl]thiophen-2-yl}formamido)-3-cyclopentyl-N-cyclopropylpropanamide] was 6.52.
With `COc1ncc(Cl)cc1N[C@H](C)c1ccc(C(=O)N[C@@H](CC2CCCC2)C(=O)NC23CC(C2)C3)s1` [Compound 61, (2S)-N-{bicyclo[1.1.1]pentan-1-yl}-2-({5-[(1R)-1-[(5-chloro-2-methoxypyridin-3-yl)amino]ethyl]thiophen-2-yl}formamido)-3-cyclopentylpropanamide], the pIC50 was 6.30.
With `CC[C@@H](Nc1cc(Cl)cnc1C)c1ccc(C(=O)N[C@@H](CC2CCCC2)C(=O)NC23CC(C2)C3)s1` [Compound 67, (2S)-N-{bicyclo[1.1.1]pentan-1-yl}-2-({5-[(1R)-1-[(5-chloro-2-methylpyridin-3-yl)amino]propyl]thiophen-2-yl}formamido)-3-cyclopentylpropanamide] the figure was 6.57; with `CC[C@@H](Nc1cc(Cl)cnc1C)c1ccc(C(=O)N[C@@H](CC2CCCC2)C(=O)NC23CC(C#N)(C2)C3)s1` [Compound 81, (2S)-2-({5-[(1R)-1-[(5-chloro-2-methylpyridin-3-yl)amino]propyl]thiophen-2-yl}formamido)-N-{3-cyanobicyclo[1.1.1]pentan-1-yl}-3-cyclopentylpropanamide], 6.16; with `COc1ncc(Cl)cc1N[C@H](C)c1ccc(C(=O)N[C@@H](CC2CCCC2)C(=O)NC23CC(C#N)(C2)C3)s1` [Compound 83, (2S)-2-({5-[(1R)-1-[(5-chloro-2-methoxypyridin-3-yl)amino]ethyl]thiophen-2-yl}formamido)-N-{3-cyanobicyclo[1.1.1]pentan-1-yl}-3-cyclopentylpropanamide], 6.32.
As to `Cc1ncc(Cl)cc1N[C@@H](C)c1ccc(C(=O)N[C@@H](CC2CCCC2)C(=O)NC(C)C)s1` [Compound 84, (2S)-2-({5-[(1S)-1-[(5-chloro-2-methylpyridin-3-yl)amino]ethyl]thiophen-2-yl}formamido)-3-cyclopentyl-N-(propan-2-yl)propanamide], the pIC50 is 8.10.
As for `Cc1ncc(Cl)cc1N[C@@H](C)c1ccc(C(=O)N[C@@H](CC2CCCC2)C(=O)Nc2ccc(C#N)cc2)s1` [Compound 85, (2S)-2-({5-[(1S)-1-[(5-chloro-2-methylpyridin-3-yl)amino]ethyl]thiophen-2-yl}formamido)-N-(4-cyanophenyl)-3-cyclopentylpropanamide], the negative logarithm of the IC50 (pIC50) was 8.15.
As for `Cc1cccc(NC(=O)[C@H](CC2CCCC2)NC(=O)c2ccc([C@H](C)Nc3cc(Cl)cnc3C)s2)n1` [Compound 86], the pIC50 was 8.10.
With `Cc1ncc(Cl)cc1N[C@@H](C)c1ccc(C(=O)N[C@@H](CC2CCCC2)C(=O)NC2CCC2)s1` [Compound 87, (2S)-2-({5-[(1S)-1-[(5-chloro-2-methylpyridin-3-yl)amino]ethyl]thiophen-2-yl}formamido)-N-cyclobutyl-3-cyclopentylpropanamide] the figure was 8.30.
With `Cc1ncc(Cl)cc1N[C@@H](C)c1ccc(C(=O)N[C@@H](CC2CCCC2)C(=O)NC2CCC2C)s1` (stereo partly drawn) [Compound 88, (2S)-2-({5-[(1S)-1-[(5-chloro-2-methylpyridin-3-yl)amino]ethyl]thiophen-2-yl}formamido)-3-cyclopentyl-N-(2-methylcyclobutyl)propanamide], the negative logarithm of the IC50 (pIC50) was 8.22.
The value for `C[C@@H](c1ccc(C(=O)N[C@@H](CC2CCCC2)C(=O)NC2CC2)s1)N(C)c1cncc(Cl)c1` [Compound 89, (2S)-2-({5-[(1S)-1-[(5-chloropyridin-3-yl)(methyl)amino]ethyl]thiophen-2-yl}formamido)-3-cyclopentyl-N-cyclopropylpropanamide] was 6.99.
On to `C[C@H](c1ccc(C(=O)N[C@@H](CC2CCCC2)C(=O)NC2CC2)s1)N(C)c1cncc(Cl)c1` [Compound 90, (2S)-2-({5-[(1R)-1-[(5-chloropyridin-3-yl)(methyl)amino]ethyl]thiophen-2-yl}formamido)-3-cyclopentyl-N-cyclopropylpropanamide], for which the negative logarithm of the IC50 (pIC50) was 7.96.
As to `COC(=O)CNC(=O)[C@H](CC1CCCC1)NC(=O)c1ccc([C@H](C)Nc2cc(Cl)cnc2C)s1` [Compound 91, methyl 2-[(2S)-2-({5-[(1S)-1-[(5-chloro-2-methylpyridin-3-yl)amino]ethyl]thiophen-2-yl}formamido)-3-cyclopentylpropanamido]acetate], the negative-log IC50 (pIC50) was 7.72.
As to `Cc1ncc(Cl)cc1N[C@@H](C)c1ccc(C(=O)N[C@@H](CC2CCC3CC32)C(=O)NC2CC2)s1` (stereo partly drawn) [Compound 92, (2S)-3-{bicyclo[3.1.0]hexan-2-yl}-2-({5-[(1S)-1-[(5-chloro-2-methylpyridin-3-yl)amino]ethyl]thiophen-2-yl}formamido)-N-cyclopropylpropanamide], the pIC50 was 8.00.
As to `Cc1ncc(Cl)cc1N[C@@H](C)c1ccc(C(=O)N[C@@H](CC2CCCC2)C(=O)NCC(=O)O)s1` [Compound 93, 2-[(2S)-2-({5-[(1S)-1-[(5-chloro-2-methylpyridin-3-yl)amino]ethyl]thiophen-2-yl}formamido)-3-cyclopentylpropanamido]acetic acid], the negative-log IC50 (pIC50) is 6.68.
Turning to `COC(=O)[C@H]1C[C@H](NC(=O)[C@H](CC2CCCC2)NC(=O)c2ccc([C@H](C)Nc3cc(Cl)cnc3C)s2)C1` [Compound 94, methyl (1r,3r)-3-[(2S)-2-({5-[(1S)-1-[(5-chloro-2-methylpyridin-3-yl)amino]ethyl]thiophen-2-yl}formamido)-3-cyclopentylpropanamido]cyclobutane-1-carboxylate], the pIC50 is 8.30.
For the molecule `Cc1ncc(Cl)cc1N[C@@H](C)c1ccc(C(=O)N[C@@H](CC2CCCC2)C(=O)N[C@H]2C[C@H](C(=O)O)C2)s1` [Compound 95, (1r,3r)-3-[(2S)-2-({5-[(1S)-1-[(5-chloro-2-methylpyridin-3-yl)amino]ethyl]thiophen-2-yl}formamido)-3-cyclopentylpropanamido]cyclobutane-1-carboxylic acid], the pIC50 was 8.00.
On to `C[C@@H](c1ccc(C(=O)N[C@@H](CC2CCCC2)C(=O)NC23CC(C2)C3)s1)N(C)c1cncc(Cl)c1` [Compound 96, (2S)-N-{bicyclo[1.1.1]pentan-1-yl}-2-({5-[(1S)-1-[(5-chloropyridin-3-yl)(methyl)amino]ethyl]thiophen-2-yl}formamido)-3-cyclopentylpropanamide], for which the negative-log IC50 (pIC50) was 7.12.
